Laboratory results reported in PMC10215302 (Antibiotics, 2023).
Where two headings read alike, the source gives them in different places.

What was measured:
[1] = tested on: S. aureus SA0077; details: for MIC values: Table S1: SA0077 Abf (passages on antibiotic-free media)
[2] = tested on: S. aureus SA0085; details: for MIC values: Table S1: SA0085 Abf (passages on antibiotic-free media)
[3] = tested on: S. aureus SA0422
[4] = tested on: S. aureus SA0736
[5] = tested on: S. aureus ATCC 29213
[6] = tested on: S. aureus RN4220
[7] = tested on: S. aureus derivative strains; details: for MIC: daptomycin-selected derivative strains without WalK mutations (all except SA0422), susceptible
[8] = SA0077, selecting agent DAP, passage 20
[9] = SA0077, selecting agent DAP, passage 40
[10] = SA0077, selecting agent VAN, passage 0
[11] = SA0077, selecting agent VAN, passage 5
[12] = SA0077, selecting agent VAN, passage 20
[13] = SA0077, selecting agent VAN, passage 40
[14] = SA0085, selecting agent DAP, passage 5
[15] = SA0085, selecting agent DAP, passage 40
[16] = SA0085, selecting agent VAN, passage 0
[17] = SA0085, selecting agent VAN, passage 5
[18] = SA0085, selecting agent VAN, passage 20
[19] = SA0085, selecting agent VAN, passage 40
[20] = SA0422, selecting agent DAP, passage 5
[21] = SA0422, selecting agent DAP, passage 20
[22] = SA0422, selecting agent DAP, passage 40
[23] = SA0422, selecting agent VAN, passage 0
[24] = SA0422, selecting agent VAN, passage 5
[25] = SA0422, selecting agent VAN, passage 20
[26] = SA0422, selecting agent VAN, passage 40
[27] = SA0736, selecting agent DAP, passage 5
[28] = SA0736, selecting agent DAP, passage 20
[29] = SA0736, selecting agent DAP, passage 40Y (yellow colonies)
[30] = SA0736, selecting agent VAN, passage 0
[31] = SA0736, selecting agent VAN, passage 5
[32] = SA0736, selecting agent VAN, passage 20
[33] = SA0736, selecting agent VAN, passage 40
[34] = Table S1: SA0736 DAP-W (40 passages on daptomycin, white colonies)
[35] = Table S1: SA0736 DAP-Y (40 passages on daptomycin, yellow colonies)
[36] = ATCC 29213, selecting agent DAP, passage 5
[37] = ATCC 29213, selecting agent DAP, passage 20
[38] = ATCC 29213, selecting agent DAP, passage 40
[39] = ATCC 29213, selecting agent VAN, passage 0
[40] = ATCC 29213, selecting agent VAN, passage 5
[41] = ATCC 29213, selecting agent VAN, passage 20
[42] = ATCC 29213, selecting agent VAN, passage 40
[43] = Table S1: RN4220 ∆ (strain with deletion in SACOL1927)
[44] = SA0085, selecting agent DAP, passage 20
[45] = SA0736, selecting agent DAP, passage 40W (white colonies)

dalbavancin
<0.03 µg/mL: MIC ([1]; SA0077, selecting agent DAP, passage 5)
0.06 µg/mL: MIC [2, 17] | MIC [3, 20] | MIC [5, 37]
<0.016 µg/mL: MIC [2, 14] | MIC [2, 16] | MIC [5, 39] | MIC [5, 40] | MIC [5, 41]
1 µg/mL: MIC [1, 12] | MIC [3, 26] | MIC [4, 32] | MIC [4, 33]
0.25 µg/mL: MIC [1, 11] | MIC [2, 19] | MIC [3, 21] | MIC [3, 22] | MIC [4, 28]
2 µg/mL: MIC [1, 13] | MIC [5, 42]
0.125 µg/mL: MIC [1, 8] | MIC [1, 9] | MIC [2, 15] | MIC [3, 24] | MIC [4, 31] | MIC [5, 38]
0.03 µg/mL: MIC [1, 10] | MIC values [1] | MIC values [2] | MIC [3, 23] | MIC [4, 27] | MIC [4, 30] | MIC [5, 36] | MIC values ([6]; Table S1: RN4220 WT) | MIC values [6, 43]
≤ 0.125 µg/mL: MIC [7]
0.5 µg/mL: MIC [2, 18] | MIC [3, 25] | MIC [4, 29] | MIC values [4, 34] | MIC values [4, 35]

teicoplanin [TEC]
.125 µg/mL: MIC values [1] | MIC values [2]
1 µg/mL: MIC [2, 17] | MIC [3, 21] | MIC [3, 22]
2 µg/mL: MIC [2, 18] | MIC [3, 24] | MIC [5, 37] | MIC [5, 41]
8 µg/mL: MIC [1, 11] | MIC [1, 12] | MIC [1, 13] | MIC [2, 44] | MIC [2, 15] | MIC [2, 19] | MIC [4, 28] | MIC [4, 45] | MIC [4, 29] | MIC [4, 33] | MIC values [4, 34] | MIC values [4, 35] | MIC [5, 42]
0.25 µg/mL: MIC [1, 8] | MIC [1, 9] | MIC [1, 10] | MIC [3, 20] | MIC [4, 27] | MIC [4, 30] | MIC values ([6]; Table S1: RN4220 WT) | MIC values [6, 43]
4 µg/mL: MIC [3, 25] | MIC [3, 26] | MIC [4, 31] | MIC [5, 38]
0.5 µg/mL: MIC [3, 23] | MIC [5, 36]
0.125 µg/mL: MIC [2, 14] | MIC [2, 16]
0.06 µg/mL: MIC [5, 39] | MIC [5, 40]

telavancin [TLV]
0.25 µg/mL: MIC [2, 15] | MIC [2, 18] | MIC [2, 19] | MIC [3, 21] | MIC [3, 22] | MIC [3, 24] | MIC [4, 31] | MIC [5, 38]
≤ 0.125 µg/mL: MIC [7]
0.125 to 0.25 µg/mL: MIC by the end of daptomycin selection ([7]; derivatives, end of daptomycin selection)
0.06 µg/mL: MIC [1, 11] | MIC [2, 14] | MIC [2, 44] | MIC [2, 16] | MIC [2, 17] | MIC values [2] | MIC values ([6]; Table S1: RN4220 WT) | MIC values [6, 43]
0.03 µg/mL: MIC values [1]
<0.03 µg/mL: MIC [5, 36] | MIC [5, 39] | MIC [5, 40]
0.5 µg/mL: MIC [1, 12] | MIC [3, 25] | MIC [4, 32] | MIC [4, 33] | MIC [5, 42]
0.125 µg/mL: MIC [1, 8] | MIC [1, 9] | MIC [1, 10] | MIC [3, 20] | MIC [3, 23] | MIC [4, 27] | MIC [4, 28] | MIC [4, 45] | MIC [4, 29] | MIC [5, 37] | MIC [5, 41]
.125 µg/mL: MIC values [4, 34] | MIC values [4, 35]
1 µg/mL: MIC [1, 13] | MIC [3, 26]
